Marks after values point to notes of the source that are not given here.
Tested on: human serum pool
Test: Redox activity (oxy score from TOS, PAB, TAS, SHG) in vitro in human serum pool
Settings: 37 °C, median (interquartile range); for Oxy score (OS), 2 h incubation, TBH added / Oxy score (OS), 24 h incubation, TBH added: with TBH added; for Oxy score (OS), 2 h incubation / Oxy score (OS), 24 h incubation: without TBH; for Oxy score (OS), 2 h incubation: average of five concentrations
Protocol: The remains of the serum samples were taken from healthy subjects after biochemical analysis; these subjects participated in regular medical examinations at the Military Medical Academy in Belgrade and consented to the formation of a serum pool. Neither the patients’ data nor their identities were used. Serum pool samples were prepared and aliquoted (450 µL portions) according to the routine procedure for in-house controle samples and preserved at the -80 °C until analysis. Five serial dilutions of the tested compounds (concentrations: 1000 µM, 500 µM, 250 µM, 125 µM and 62.5 µM) were added alone (50 µL) or in combination (25 µL) with oxidant TBH (25 µM) into 450 µL of serum. The compounds were dissolved in dimethyl sulfoxide (DMSO) for stock solution (1000 µM), while a PBS buffer (phosphate buffered saline) pH = 7.4 was used for serial dilutions (500 µM, 250 µM, 125 µM and 62.5 µM). Deionized water was used as a blank. DMSO and buffer pH = 7.4 were used as a control, while trolox solution (2 mmol/L) was used as a standard. All samples were incubated in duplicate for 2 h and 24 h at 37 °C.
Oxidative stress parameters (total antioxidative status (TAS), total oxidative status (TOS), total concentration of sulfhydryl group (SHG) and prooxidative–antioxidative balance (PAB)) were determined in order to calculate prooxidative score, antioxidative score and oxy score (OS). These parameters were determined in serum.
Total antioxidative status (TAS) was measured using Erel’s method, which was further optimized by Kotur-Stevuljevic et al. in 2015 [34]. ABTS (2,2-azino-bis(3-ethyl-benzthiazoline-6-sulfonic acid) is oxidized to a green-colored ABTS^+ cation by hydrogen peroxide in the acetate buffer (pH = 3.6). This stable cation is chromogen, and the presence of antioxidants in the samples causes its discoloration proportional to their concentrations. The absorbance was measured using a SPECTROstar Nano Microplate Reader (BMG Labtech, Ortenberg, Germany). The reaction was calibrated with Trolox and the TAS values are expressed as mmol trolox equivalent/L.
Total oxidative status (TOS) was measured using Erel’s method. Here, a ferrous ion-o-dianisidine complex is oxidized to ferric ion by the oxidants present in the sample. The ferric ion forms a colored complex with xylenol orange in an acidic environment and in the presence of glycerol. The intensity of the color of the formed complex is proportional to the total contents of oxidants in the sample. The absorbance was measured at 560 nm using a SPECTROstar Nano Microplate Reader (BMG Labtech, Ortenberg, Germany). The reaction was calibrated with hydrogen peroxide and the TOS values are expressed as µmol H2O2 equivalent/L.
Prooxidant–antioxidant balance (PAB) was measured according to procedures in the literature. Here, hydrogen peroxide is determined in the presence of antioxidants in the sample. Both of them (hydrogen peroxide and antioxidants (including uric acid)) react with chromogen TMB (3,3′,5,5′-tetramethylbenzidine) simultaneously. The hydrogen peroxide and chromogen reaction is enzymatically catalyzed with peroxidase, while the antioxidants–chromogen reaction is non-enzymatic. The intense blue color, produced as a result of the reaction between hydrogen peroxide and TMB, is decolorized by the reaction of the antioxidant with the TMB. The resulting color (result of two competitive reactions) is proportional to the ratio of antioxidants to prooxidants. The absorbance was measured at 450 nm. Different ratios of hydrogen peroxide and uric acid solutions were used to make a standard curve. The PAB results are expressed in hydrogen peroxide concentrations.
Total Sulfydryl Groups Content (SHG) was measured using a modified version of Ellman’s method. This method is based on the reaction between DTNB ([…]) and aliphatic thiol compounds in an alkaline environment (pH = 9.0). […]

Structure (SMILES)	Oxy score (OS), 2 h incubation, TBH added	Oxy score (OS), 2 h incubation	Oxy score (OS), 24 h incubation, TBH added	Oxy score (OS), 24 h incubation
Cc1cc(C(C)(C)C)c(O)c(C(C)(C)C)c1 [BHT, Butylated hydroxytoluene, reference compound]	7.98 (6.77–8.81)	3.08 (2.73–3.26)	4.51 (4.38–7.22)	2.62 (2.14–3.22)
Cc1ccc(-c2cc(C(F)(F)F)nn2-c2ccc(S(N)(=O)=O)cc2)cc1 [Celecoxib, reference compound]	7.94 (6.97–8.45)	5.66 (2.92–12.90)	4.95 (4.57–10.25)	2.77 (2.46–3.27)
CC(C)(C)OO [TBH, tert-butyl hydroperoxide, reference compound]		6.40 (4.66–11.59)		6.43 (4.73–12.00)
Cc1c(C)c2c(c(C)c1O)CCC(C)(C(=O)O)O2 (centres unmarked) [Trolox, reference compound]		0.54 (−0.66–2.43)		0.07 (−0.59–0.59) *
NC(N)=O [Urea, urea, reference compound]	8.11 (7.61–8.79)	3.48 (3.44–4.08)	5.19 (4.96–14.00)	4.60 (3.62–6.02)
CC(c1cc2ccccc2s1)N(O)C(N)=O (centres unmarked) [Zileuton, reference compound]	6.87 (6.52–7.18)	2.60 (−7.86–7.54)	8.80 (5.71–13.66)	3.61 (2.47–4.93)
